Read-outs that look alike come from different tables or passages of the source.
Legend:
hT2R55 = experiment: hT2R panel inhibition, transient HEK293 G16g44, agonist Cinchonine 150 μM; type: cell-based, human; settings: compound at 25 μM; receptor activated to EC80 with the corresponding agonist
Procedure, shortened: (§1)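 Panel: 22 human T2Rs, individually transient in stable G16g44 cells. Stim: EC80 agonist. Output: % reduction of activity by test cpd.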

hT2R7 = hT2R7 (Homo sapiens (Human), UniProt Q9NYW3); experiment: hT2R panel inhibition, transient HEK293 G16g44, agonist Chloroquine pH6.5 10 mM; type: cell-based; settings: HEK293, compound at 25 μM; receptor activated to EC80 with the corresponding agonist; read-out: screening result against bitter receptor 7
Procedure, shortened: as §1

hT2R3 = hT2R3 (Homo sapiens (Human), UniProt Q9NYW6); experiment: hT2R panel inhibition, transient HEK293 G16g44, agonist Chloroquine pH6.5 50 μM; type: cell-based; settings: receptor activated to EC80 with the corresponding agonist; for inhibition at 25 µM: HEK293, compound at 25 μM, read-out: screening result against bitter receptor 3
Procedure, shortened: as §1

hT2R10 = hT2R10 (Homo sapiens (Human), UniProt Q9NYW0); experiment: hT2R panel inhibition, transient HEK293 G16g44, agonist Strychnine 50 μM; type: cell-based; settings: receptor activated to EC80 with the corresponding agonist; for inhibition at 25 µM: HEK293, read-out: screening result against bitter receptor 10, compound at 25 μM
hT2R51 = hT2R51 (Homo sapiens (Human), UniProt P59533); experiment: hT2R panel inhibition, transient HEK293 G16g44, agonist Prop 2.5 μM; type: cell-based; settings: receptor activated to EC80 with the corresponding agonist; for inhibition at 25 µM: HEK293, compound at 25 μM, read-out: screening result against bitter receptor 51
Procedure, shortened: as §1

hT2R67 = experiment: hT2R panel inhibition, transient HEK293 G16g44, agonist Andrographolide 5 μM; type: cell-based, human; settings: compound at 25 μM; receptor activated to EC80 with the corresponding agonist
Procedure, shortened: as §1

hT2R61 = hT2R61 (Homo sapiens (Human), UniProt P59537); experiment: hT2R panel inhibition, transient HEK293 G16g44, agonist Aristolochic Acid 25 nM; type: cell-based; settings: HEK293, compound at 25 μM; receptor activated to EC80 with the corresponding agonist; read-out: screening result against bitter receptor 61
Procedure, shortened: as §1

hT2R14 [1] = molecular target: T1, hT2R14 (Homo sapiens (Human), UniProt Q9NYV8); experiment: hT2R panel inhibition, transient HEK293 G16g44, agonist Aristolochic Acid 2 μM; type: cell-based; settings: HEK293, compound at 25 μM; receptor activated to EC80 with the corresponding agonist; read-out: screening result against bitter receptor 14
Procedure, shortened: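 Agonist challenge was at EC80, with 0.5 mM andrographolide on hT2R8 and 2 μM aristolochic acid on hT2R14. Inhibition was measured in functional assays in HEK293 cells that stably carry the promiscuous G protein G16g44 and were transiently transfected with the individual receptor.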

hT2R8 [2] = molecular target: T2, hT2R8 (Homo sapiens (Human), UniProt Q9NYW2); experiment: hT2R panel inhibition, transient HEK293 G16g44, agonist Andrographolide 0.5 mM; type: cell-based; settings: HEK293, compound at 25 μM; receptor activated to EC80 with the corresponding agonist; read-out: screening result against bitter receptor 8
Description: Specifically, in order to evaluate the inhibitory selectivity of the Compound C compound, this compound was tested against 22 human T2Rs which were deorphaned by Senomyx. These receptors and the bitter ligands that activate these human T2Rs are reported in earlier patent applications which are incorporated by reference herein. These 22 human T2Rs are hT2R1, 3, 4, 5, 7, 8, 9, 10, 13, 14, 16, 44, 51, 54, 55, 61, 63, 64, 65, 67, 71 and 75. The amino acid and nucleic acid sequences of all of these T2Rs may be found in these earlier patent applications. These human T2Rs were each individually transiently transfected into HEK293 cells that stably express the promiscuous G protein G16g44 and functional assays were effected using these receptors as disclosed in these same patent applications. […] The ligands were used at EC80 concentration levels. The list of bitter ligands utilized and the tested ligand concentrations are contained in Table 5 of this example.

hT2R5 = hT2R5 (Homo sapiens (Human), UniProt Q9NYW4); experiment: hT2R panel inhibition, transient HEK293 G16g44, agonist Picoline 10 mM; type: cell-based; settings: HEK293, compound at 25 μM; receptor activated to EC80 with the corresponding agonist; read-out: screening result against bitter receptor 5
Procedure, shortened: as §1

hT2R63 = experiment: hT2R panel inhibition, transient HEK293 G16g44, agonist Caffeine 1 mM or Andrographolide 100 μM; type: cell-based, human; settings: compound at 25 μM; receptor activated to EC80 with the corresponding agonist
Procedure, shortened: as §1

hT2R54 = experiment: hT2R panel inhibition, transient HEK293 G16g44, agonist Ranitidine 5 mM; type: cell-based, human; settings: compound at 25 μM; receptor activated to EC80 with the corresponding agonist
Procedure, shortened: as §1

hT2R64 = hT2R64 (Homo sapiens (Human), UniProt P59538); experiment: hT2R panel inhibition, transient HEK293 G16g44, agonist Aristolochic Acid 1 μM; type: cell-based; settings: HEK293, compound at 25 μM; receptor activated to EC80 with the corresponding agonist; read-out: screening result against bitter receptor 64
Procedure, shortened: as §1

hT2R16 = hT2R16 (Homo sapiens (Human), UniProt Q9NYV7); experiment: hT2R panel inhibition, transient HEK293 G16g44, agonist Salicin 1 mM; type: cell-based; settings: HEK293, compound at 25 μM; receptor activated to EC80 with the corresponding agonist; read-out: screening result against bitter receptor 16
Procedure, shortened: as §1

hT2R65 = experiment: hT2R panel inhibition, transient HEK293 G16g44, agonist Oleuropein 1 mM; type: cell-based, human; settings: compound at 25 μM; receptor activated to EC80 with the corresponding agonist
Procedure, shortened: as §1

hT2R71 = hT2R71 (Homo sapiens (Human), UniProt P59536); experiment: hT2R panel inhibition, transient HEK293 G16g44, agonist Picric Acid 10 μM; type: cell-based; settings: receptor activated to EC80 with the corresponding agonist; for inhibition at 25 µM: HEK293, compound at 25 μM, read-out: screening result against bitter receptor 71
Procedure, shortened: as §1

hT2R44 = experiment: hT2R panel inhibition, transient HEK293 G16g44, agonist Denatonium 0.5 μM; type: cell-based, human; settings: compound at 25 μM; receptor activated to EC80 with the corresponding agonist
Procedure, shortened: as §1

[3] = test system: bitter taste of instant coffee; experiment: 2-alternative forced choice taste test, instant coffee with hT2R8 antagonists; type: in vivo, human; settings: antagonist 5 μM
Description: Taste tests were performed with hT2R8 antagonists in instant coffee using a 2-alternative forced choice method with a taste panel of 15-20 panelists. Coffee samples with the antagonists were given to the taste panelists together with the same sample without antagonists, the panelists were asked to identify the bitterer sample within the pair.

hT2R8 [4] = molecular target: T2, hT2R8; experiment: hT2R8 antagonist high-throughput FLIPR assay, stable cell line with G16g44, agonist andrographolide; type: cell-based; settings: read-out: IC50 on hT2R8 bitter receptor
Procedure, shortened: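 Antagonist screen: compounds co-applied with agonist andrographolide at 200 μM, a dose giving 70–80% of maximal hT2R8 activation. Fluorescence measured by FLIPR in a stable HEK293 line expressing both hT2R8 and the promiscuous G16g44 protein.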

hT2R14 [5] = molecular target: T1, hT2R14; experiment: hT2R14 antagonist high-throughput FLIPR assay, stable cell line with G16g44, agonist aristolochic acid; type: cell-based
Procedure, shortened: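 Compounds were co-applied with 3 μM aristolochic acid, a dose set to reach 70-80% of maximal hT2R14 activation. Read-out was FLIPR fluorescence in a stable HEK293 line co-expressing hT2R14 and G16g44.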

hT2R4 = hT2R4 (Homo sapiens (Human), UniProt Q9NYW5); experiment: hT2R panel inhibition, transient HEK293 G16g44, agonist Chloroquine pH6.5 5 mM; type: cell-based; settings: HEK293, compound at 25 μM; receptor activated to EC80 with the corresponding agonist; class symbols; read-out: screening result against bitter receptor 4
Procedure, shortened: as §1

hT2R75 = hT2R75 (Homo sapiens (Human), UniProt P59540); experiment: hT2R panel inhibition, transient HEK293 G16g44, agonist Strychnine 1 μM; type: cell-based; settings: HEK293, read-out: screening result against bitter receptor 75, compound at 25 μM; receptor activated to EC80 with the corresponding agonist
Sequence of hT2R75 (P59540 whole entry): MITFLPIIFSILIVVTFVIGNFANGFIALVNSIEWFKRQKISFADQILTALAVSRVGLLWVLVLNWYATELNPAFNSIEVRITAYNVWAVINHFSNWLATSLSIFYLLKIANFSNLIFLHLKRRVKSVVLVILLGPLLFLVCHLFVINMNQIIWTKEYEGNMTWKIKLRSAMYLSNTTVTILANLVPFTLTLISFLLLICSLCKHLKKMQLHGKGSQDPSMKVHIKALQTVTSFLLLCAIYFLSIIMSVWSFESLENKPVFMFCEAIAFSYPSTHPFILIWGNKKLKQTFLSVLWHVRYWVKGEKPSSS

T1 sequence (Q9NYV8 whole entry): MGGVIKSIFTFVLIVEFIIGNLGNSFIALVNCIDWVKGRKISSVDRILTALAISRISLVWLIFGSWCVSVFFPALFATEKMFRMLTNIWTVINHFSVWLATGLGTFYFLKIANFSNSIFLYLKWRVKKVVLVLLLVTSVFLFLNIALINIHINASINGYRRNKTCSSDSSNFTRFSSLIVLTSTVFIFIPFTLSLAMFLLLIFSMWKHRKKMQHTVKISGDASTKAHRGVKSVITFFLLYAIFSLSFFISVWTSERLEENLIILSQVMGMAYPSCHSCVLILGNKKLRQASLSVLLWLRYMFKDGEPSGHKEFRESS
Sequence of hT2R3 (Q9NYW6 whole entry): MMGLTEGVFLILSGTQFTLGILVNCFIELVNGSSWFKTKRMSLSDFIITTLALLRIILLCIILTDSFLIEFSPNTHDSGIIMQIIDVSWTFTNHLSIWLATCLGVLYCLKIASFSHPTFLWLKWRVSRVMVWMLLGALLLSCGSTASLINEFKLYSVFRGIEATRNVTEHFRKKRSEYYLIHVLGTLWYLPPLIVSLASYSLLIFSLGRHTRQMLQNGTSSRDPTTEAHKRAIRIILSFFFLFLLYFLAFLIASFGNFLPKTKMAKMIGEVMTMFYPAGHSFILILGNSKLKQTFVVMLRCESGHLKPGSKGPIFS
T2 sequence (Q9NYW2 whole entry): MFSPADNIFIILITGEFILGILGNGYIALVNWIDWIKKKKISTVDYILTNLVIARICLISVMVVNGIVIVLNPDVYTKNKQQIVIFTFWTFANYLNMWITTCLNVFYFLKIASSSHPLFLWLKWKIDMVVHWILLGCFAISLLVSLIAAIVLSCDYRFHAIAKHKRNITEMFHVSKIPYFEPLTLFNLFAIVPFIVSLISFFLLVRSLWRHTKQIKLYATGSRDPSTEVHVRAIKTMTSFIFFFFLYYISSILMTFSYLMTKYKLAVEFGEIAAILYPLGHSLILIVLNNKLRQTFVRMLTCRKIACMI
Sequence of hT2R71 (P59536 whole entry): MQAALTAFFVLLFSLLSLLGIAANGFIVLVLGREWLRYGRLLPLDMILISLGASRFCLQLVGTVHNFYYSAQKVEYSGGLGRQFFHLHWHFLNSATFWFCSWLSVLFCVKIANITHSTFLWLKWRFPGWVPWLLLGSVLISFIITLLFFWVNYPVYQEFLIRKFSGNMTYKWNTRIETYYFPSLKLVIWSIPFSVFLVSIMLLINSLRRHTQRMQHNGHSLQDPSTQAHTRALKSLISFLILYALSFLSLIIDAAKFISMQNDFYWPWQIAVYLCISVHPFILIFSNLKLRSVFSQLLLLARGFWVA
Sequence of hT2R61 (P59537 whole entry): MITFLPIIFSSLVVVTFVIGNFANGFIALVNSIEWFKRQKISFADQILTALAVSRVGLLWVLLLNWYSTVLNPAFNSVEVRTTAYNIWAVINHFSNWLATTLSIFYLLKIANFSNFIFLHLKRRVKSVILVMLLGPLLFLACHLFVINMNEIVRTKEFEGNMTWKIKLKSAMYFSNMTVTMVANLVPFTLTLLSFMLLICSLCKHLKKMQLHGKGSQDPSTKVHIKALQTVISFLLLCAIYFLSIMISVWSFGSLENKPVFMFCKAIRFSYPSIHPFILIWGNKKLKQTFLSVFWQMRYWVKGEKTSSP
Sequence of hT2R5 (Q9NYW4 whole entry): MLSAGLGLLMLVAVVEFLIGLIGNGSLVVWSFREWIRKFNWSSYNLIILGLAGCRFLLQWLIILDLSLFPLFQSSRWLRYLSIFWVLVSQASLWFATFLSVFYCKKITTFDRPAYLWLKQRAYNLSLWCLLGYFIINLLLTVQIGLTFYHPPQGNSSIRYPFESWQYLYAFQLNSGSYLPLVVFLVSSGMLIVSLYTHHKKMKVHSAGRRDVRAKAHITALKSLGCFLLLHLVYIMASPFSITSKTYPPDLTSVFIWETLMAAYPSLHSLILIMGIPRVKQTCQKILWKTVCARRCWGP
Sequence of hT2R10 (Q9NYW0 whole entry): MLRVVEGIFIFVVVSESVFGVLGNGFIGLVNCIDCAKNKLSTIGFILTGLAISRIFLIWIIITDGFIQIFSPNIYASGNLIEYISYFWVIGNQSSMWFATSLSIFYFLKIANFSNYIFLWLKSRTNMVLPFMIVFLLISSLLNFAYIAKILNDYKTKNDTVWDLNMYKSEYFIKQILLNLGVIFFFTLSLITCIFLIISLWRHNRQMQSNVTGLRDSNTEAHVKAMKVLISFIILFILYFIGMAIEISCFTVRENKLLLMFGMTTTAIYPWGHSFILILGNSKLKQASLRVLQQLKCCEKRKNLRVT
Sequence of hT2R51 (P59533 whole entry): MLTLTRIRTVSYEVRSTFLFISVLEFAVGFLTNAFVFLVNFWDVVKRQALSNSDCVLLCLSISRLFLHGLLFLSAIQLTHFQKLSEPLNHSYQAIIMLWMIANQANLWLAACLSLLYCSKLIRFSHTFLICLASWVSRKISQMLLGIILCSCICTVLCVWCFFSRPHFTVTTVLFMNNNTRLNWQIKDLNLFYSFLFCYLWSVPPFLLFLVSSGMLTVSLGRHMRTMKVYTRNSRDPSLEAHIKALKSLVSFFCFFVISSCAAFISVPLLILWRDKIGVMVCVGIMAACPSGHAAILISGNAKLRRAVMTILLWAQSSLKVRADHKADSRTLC
Sequence of hT2R7 (Q9NYW3 whole entry): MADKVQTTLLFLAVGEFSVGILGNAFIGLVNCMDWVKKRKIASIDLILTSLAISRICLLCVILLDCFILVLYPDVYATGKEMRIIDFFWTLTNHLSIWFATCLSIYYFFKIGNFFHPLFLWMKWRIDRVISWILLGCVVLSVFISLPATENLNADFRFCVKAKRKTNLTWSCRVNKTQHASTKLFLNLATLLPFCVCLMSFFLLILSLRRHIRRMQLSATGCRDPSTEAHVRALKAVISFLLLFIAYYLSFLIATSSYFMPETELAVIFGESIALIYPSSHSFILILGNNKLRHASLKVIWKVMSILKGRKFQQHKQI
Sequence of hT2R64 (P59538 whole entry): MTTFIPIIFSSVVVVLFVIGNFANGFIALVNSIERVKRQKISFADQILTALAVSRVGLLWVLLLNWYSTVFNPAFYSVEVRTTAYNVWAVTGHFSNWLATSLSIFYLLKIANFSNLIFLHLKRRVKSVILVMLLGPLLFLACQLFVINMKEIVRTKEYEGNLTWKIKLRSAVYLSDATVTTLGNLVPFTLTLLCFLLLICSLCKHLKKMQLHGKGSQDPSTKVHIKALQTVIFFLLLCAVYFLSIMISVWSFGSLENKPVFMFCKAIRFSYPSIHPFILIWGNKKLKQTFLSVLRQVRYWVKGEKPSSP
Sequence of hT2R16 (Q9NYV7 whole entry): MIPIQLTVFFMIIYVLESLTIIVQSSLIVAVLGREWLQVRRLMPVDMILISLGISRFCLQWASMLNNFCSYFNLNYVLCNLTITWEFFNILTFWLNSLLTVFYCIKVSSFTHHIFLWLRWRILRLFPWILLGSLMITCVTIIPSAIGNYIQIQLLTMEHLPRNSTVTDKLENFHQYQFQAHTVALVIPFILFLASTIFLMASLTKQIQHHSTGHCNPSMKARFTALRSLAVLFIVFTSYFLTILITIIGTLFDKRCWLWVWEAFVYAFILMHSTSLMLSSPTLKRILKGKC
Sequence of hT2R4 (Q9NYW5 whole entry): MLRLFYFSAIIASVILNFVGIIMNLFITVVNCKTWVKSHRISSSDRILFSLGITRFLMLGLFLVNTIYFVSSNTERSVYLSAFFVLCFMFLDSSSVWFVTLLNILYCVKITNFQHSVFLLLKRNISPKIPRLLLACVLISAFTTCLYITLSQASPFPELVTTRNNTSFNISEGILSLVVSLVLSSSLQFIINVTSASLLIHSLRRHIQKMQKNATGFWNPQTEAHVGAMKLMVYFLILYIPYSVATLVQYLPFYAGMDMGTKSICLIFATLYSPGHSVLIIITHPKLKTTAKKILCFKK

Row | SMILES | screening result against bitter receptor 55 (hT2R55) | inhibition at 25 µM (hT2R7) | inhibition at 25 µM (hT2R3) | screening result against bitter receptor 67 (hT2R67) | inhibition at 25 µM (hT2R61) | inhibition at 25 µM (hT2R14 [1]) | inhibition at 25 µM (hT2R8 [2]) | inhibition at 25 µM (hT2R5) | screening result against bitter receptor 63 (hT2R63) | inhibition at 25 µM (hT2R64) | inhibition at 25 µM (hT2R71) | screening result against bitter receptor 44 (hT2R44) | Selected as bitterer: With antagonists [3] | Selected as bitterer: Without antagonists [3] | IC50 (hT2R8 [4]) | further results
1 | O=C(O)c1ccc(S(=O)(=O)N(Cc2ccccc2)Cc2ccc(Cl)cc2)cc1 [Example 5-77, 4-(N-benzyl-N-(4-chlorobenzyl)sulfamoyl)benzoic acid] | ++ (40% to 60% inhibition = ++) | 20 to 40% | 40 to 60% | + (20% to 40% inhibition = +) | 60 to 80% | > 80% | 20 to 40% | 20 to 40% | +++ (60% to 80% inhibition = +++) | 40 to 60% | 40 to 60% | + (20% to 40% inhibition = +) | – | – | – | inhibition at 25 µM (hT2R10): 20 to 40%; inhibition at 25 µM (hT2R51): 40 to 60%; screening result against bitter receptor 54 (hT2R54): ++ (40% to 60% inhibition = ++); inhibition at 25 µM (hT2R16): 20 to 40%; screening result against bitter receptor 65 (hT2R65): ++ (40% to 60% inhibition = ++)
2 | COc1ccc(CN2C(=O)N(c3cnn(Cc4c(C)noc4C)c3)C(=O)C2(C)C)cc1O [Example 12-2, 3-(1-((3,5-dimethylisoxazol-4-yl)methyl)-1H-pyrazol-4-yl)-1-(3-hydroxy-4-methoxybenzyl)-5,5-dimethylimidazolidine-2,4-dione] | – | – | – | – | – | – | – | – | – | – | – | – | 2 | 14 | 60 nM | –
3 | Cc1noc(C)c1Cn1cc(N2C(=O)N(Cc3cccc(O)c3)C(C)(C)C2=O)cn1 [Example 12-1, 3-(1-((3,5-dimethylisoxazol-4-yl)methyl)-1H-pyrazol-4-yl)-1-(3-hydroxybenzyl)-5,5-dimethylimidazolidine-2,4-dione] | – | – | – | – | – | – | – | – | – | – | – | – | 2 | 14 | 50 nM | –
4 | COc1ccc(CN(Cc2ccsc2)S(=O)(=O)c2ccc(C(=O)O)cc2)cc1 [Example 5-62, 4-(N-(4-methoxybenzyl)-N-(thiophen-3-ylmethyl)sulfamoyl)benzoic acid] | +++ (60% to 80% inhibition = +++) | 20 to 40% | 20 to 40% | + (20% to 40% inhibition = +) | 40 to 60% | – | 20 to 40% | 20 to 40% | ++++ (80% or greater inhibition = ++++) | 40 to 60% | 20 to 40% | – | – | – | – | –
5 | Cc1noc(C)c1Cn1cc(N2C(=O)N(Cc3cccc(CO)c3)C(C)(C)C2=O)cn1 [Example 12-34, 3-(1-((3,5-dimethylisoxazol-4-yl)methyl)-1H-pyrazol-4-yl)-1-(3-(hydroxymethyl)benzyl)-5,5-dimethylimidazolidine-2,4-dione] | – | – | – | – | – | – | – | – | – | – | – | – | 3 | 13 | 110 nM | –
6 | COc1cc(O)cc(CN2C(=O)N(c3cnn(Cc4c(C)noc4C)c3)C(=O)C2(C)C)c1 [Example 12-17, 3-(1-((3,5-dimethylisoxazol-4-yl)methyl)-1H-pyrazol-4-yl)-1-(3-hydroxy-5-methoxybenzyl)-5,5-dimethylimidazolidine-2,4-dione] | – | – | – | – | – | – | – | – | – | – | – | – | 3 | 17 | 20 nM | melting point: 72 to 74 °C
7 | COc1ccc(CN(Cc2ccco2)S(=O)(=O)c2ccc(C(=O)O)cc2)cc1 [Example 5-2, 4-(N-(furan-2-ylmethyl)-N-(4-methoxybenzyl)sulfamoyl)benzoic acid] | ++++ (80% or greater inhibition = ++++) | 40 to 60% | 40 to 60% | + (20% to 40% inhibition = +) | > 80% | > 80% | – | 20 to 40% | ++++ (80% or greater inhibition = ++++) | 60 to 80% | 60 to 80% | +++ (60% to 80% inhibition = +++) | – | – | – | IC50 (hT2R14 [5]; read-out: IC50 on hT2R14 bitter receptor): 590 nM; melting point: 151 to 152 °C; inhibition at 25 µM (hT2R10): 60 to 80%; inhibition at 25 µM (hT2R51): 40 to 60%; inhibition at 25 µM (hT2R4): 20 to 40%; inhibition at 25 µM (hT2R75): 20 to 40%; screening result against bitter receptor 54 (hT2R54): + (20% to 40% inhibition = +); inhibition at 25 µM (hT2R16): 60 to 80%; screening result against bitter receptor 65 (hT2R65): + (20% to 40% inhibition = +)
8 | COc1ccc(CN(Cc2ccc(F)cc2)S(=O)(=O)c2ccc(C(=O)O)cc2)cc1 [Example 5-69, 4-(N-(4-fluorobenzyl)-N-(4-methoxybenzyl)sulfamoyl)benzoic acid] | +++ (60% to 80% inhibition = +++) | – | – | – | 60 to 80% | > 80% | 20 to 40% | 20 to 40% | ++++ (80% or greater inhibition = ++++) | 40 to 60% | – | + (20% to 40% inhibition = +) | – | – | – | IC50 (hT2R14 [5]; Table C, read-out: hT2R14 IC50): 8280 nM; screening result against bitter receptor 3 (hT2R3; compound at 25 μM): + (20% to 40% inhibition = +); screening result against bitter receptor 10 (hT2R10; compound at 25 μM): + (20% to 40% inhibition = +); screening result against bitter receptor 51 (hT2R51; compound at 25 μM): ++ (40% to 60% inhibition = ++); inhibition at 25 µM (hT2R75): 20 to 40%; screening result against bitter receptor 71 (hT2R71; compound at 25 μM): + (20% to 40% inhibition = +)
